Measurements reported in US7452965B2, “Colon tumor specific binding peptides” (University of Utah Research Foundation, priority 2002, dated 2008).
“Also recorded” adds a separate entry of the source. Ends that are not written are not given here.

How the values were obtained:
[1] = tested on: grossly uninvolved normal colon; assay: Peptide-binding assay on frozen tissue sections; set-up: species or system human
Experimental: (§1) A biopsy of sporadic colon adenocarcinoma, liver and lung sarcoma, and grossly uninvolved colon, liver, lung, and stomach were frozen in optimum cutting temperature (OCT) and […] cryostat sections placed on glass slides. Sections were stained with H&E and untreated adjacent sections were incubated with RPM-FITC. After incubating with RPM-FITC in binding buffer for 45 minutes at 4° C., slides were washed and mounted using Pro-Long Anti-Fade (Molecular Probes). Nuclei were visualized by a quick incubation with Topro-3 (Molecular Probes) present in the last wash. Samples were analyzed by confocal microscopy.

[2] = tested on: lung and liver cancer, grossly uninvolved lung, liver, and stomach; assay: Peptide-binding assay on frozen tissue sections; set-up: species or system human; settings: cryostat sections
Experimental: as §1
To determine whether RPM-FITC was able to bind cancers originated from tissues other than colon or to other normal tissues, a peptide-binding assay was performed on cryostat sections of lung and liver cancer, and grossly uninvolved lung, liver, and stomach. As a positive control, a section of colon tumor was stained in parallel with the other sections. […] Binding to HT29 Cells is Dependent on the Amino Acids, RPMC-C (SEQ ID NO: 136).

HT29 cells = assay: RPM-FITC immunofluorescence staining of cultured cells (confocal microscopy); assay type: cell-based; settings: for localisation of peptide in HT29 cells: 100 uM, 1 hour
Experimental: (§2) Cell Culture: HT29, HCT116, or a 50% mixture of HT29 and HCT116 cells were plated on glass slides (Nalge). Wells were incubated with 10 μM of RPM-FITC peptide for 45 minutes at 4° C. or 37° C. After washing with wash buffer, cells were blocked with 1% NGS, 0.1% BSA, 0.1% Triton-X100 in PBS. Following the blocking step, wells were incubated with the polyclonal p53 antibody, D10, (Santa Cruz) for 1 hour at room temperature. The wells were washed and incubated with the secondary antibodies GαFITC Alexa 488 (Molecular Probes) and GαMouse Alexa 647 (Molecular Probes) and the nuclear stain Topro-3 (Molecular Probes). Wells were washed and mounted using Pro-Long Anti-fade (Molecular Probes). Slides were analyzed by confocal microscopy.
The peptide then was tested to determine whether it was able to differentiate HT29 from HCT116 cells. In order to distinguish HT29 from HCT116 cells in our immunohistochemical assays, staining was carried out in the presence of the transcription factor, p53. Staining for the protein p53 is a way to visually discriminate HT29 from HCT116 cells, since p53 is mutated and accumulates in HT29 cells but is wild type in HCT116 cells and thus, is rapidly degraded. […] To test the ability of the fluorescein conjugated peptide (RPM-FITC) to preferentially bind HT29 cells, HT29 and HCT116 cells were stained with RPM-FITC. […] When a mixture of HT29 and HCT116 cells was incubated with RPM-FITC and concurrently analyzed for the presence of p53, cells with the highest level of p53 protein also bound RPM-FITC (FIG. 5A).
The ability of a molecule to translocate across the cell membrane is important for drug delivery. HT29 cells were incubated for 1 hour at either 4° C. or 37° C. in the presence of 100 uM RPM-FITC. After incubation, cells were washed, fixed with 2% paraformaldehyde, then incubated with an anti-FITC secondary antibody to amplify the fluorescence signal.

HCT116 cells = assay: as above; assay type: cell-based; settings: 1 hour at 4° C.
Experimental: as §2, with “Wells were incubated with 10 μM of RPM-FITC peptide for 45 minutes at 4° C. or 37° C.” left out
The peptide then was tested to determine whether it was able to differentiate HT29 from HCT116 cells. In order to distinguish HT29 from HCT116 cells in our immunohistochemical assays, staining was carried out in the presence of the transcription factor, p53. Staining for the protein p53 is a way to visually discriminate HT29 from HCT116 cells, since p53 is mutated and accumulates in HT29 cells but is wild type in HCT116 cells and thus, is rapidly degraded. […] When a mixture of HT29 and HCT116 cells was incubated with RPM-FITC and concurrently analyzed for the presence of p53, cells with the highest level of p53 protein also bound RPM-FITC (FIG. 5A).

human colon tumor = assay: Peptide-binding assay on frozen tissue sections; settings: frozen sections, 4° C.
Experimental: as §1

- binding to adjacent normal colon tissue [1]: no binding
- labeling of lung and liver cancer and uninvolved lung, liver, stomach [2]: no labeling
- binding/staining of human colon tumor sections (human colon tumor; listed as FITC-conjugated RPM): showed binding
Substance: RPM-FITC: fluorescein conjugated peptide (RPM-FITC) (CPIEDRPMC; cysteine pairing not given here; also: fluorescein (FITC) conjugated, position not given here)
- localisation of peptide in HT29 cells (HT29 cells; 4° C.): confined to the cell surface
- localisation of peptide in HT29 cells (HT29 cells; 37° C.): diffuse staining throughout the cells
- RPM-FITC staining of HT29 cells (HT29 cells; 1 hour at 4° C.): showed fluorescence
- RPM-FITC staining of HCT116 cells (HCT116 cells): little or no fluorescence
- binding/staining of human colon tumor sections (human colon tumor): preferential binding; also recorded: bright staining
